Results from patent publication US20070219266A1, “N-Acylated-3-(Benzoyl)-Pyrrolidines as 11-Beta-HSD1 Inhibitors Useful for the Treatment of Metabolic Disorders” (priority 2003, published 2007).

What follows are compounds tested against T1, human 11βHSD1 (Homo sapiens, UniProt P28845) (assay: HeLa GRE4-βGal/11βHSD1 cell reporter assay (cortisone to cortisol conversion, β-galactosidase readout)). Conditions: HeLa GRE4-βGal/11βHSD1 cells, cortisone 1 μM, overnight incubation, absorbance at 570 nm.
T1 construct: stably transfected with a construct containing full-length human 11βHSD1 enzyme (in pCMVHyg); expressed in transfected cells
T1 sequence (P28845 whole entry): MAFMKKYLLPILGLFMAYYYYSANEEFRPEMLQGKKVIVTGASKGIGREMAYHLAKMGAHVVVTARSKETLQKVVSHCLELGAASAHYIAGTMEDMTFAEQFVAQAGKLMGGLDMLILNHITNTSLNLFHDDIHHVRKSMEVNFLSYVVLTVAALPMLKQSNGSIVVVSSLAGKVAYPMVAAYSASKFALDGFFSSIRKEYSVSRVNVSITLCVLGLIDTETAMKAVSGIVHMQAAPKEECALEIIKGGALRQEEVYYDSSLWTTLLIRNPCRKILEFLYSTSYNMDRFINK
Type: cell-based
Excerpt: HeLa cells (human cervical carcinoma derived cells) were stably transfected with a construct containing four copies of the glucocorticoid response element (GRE) linked to a beta-galactosidase reporter gene (3 kb lac Z gene derived from pSV-B-galactosidase). These cells were then further stably transfected with a construct containing full-length human 11βHSD1 enzyme (in pCMVHyg) to create GRE4-βGal/11βHSD1 cells. The principal of the assay is as follows. Cortisone is freely taken up by the cells and is converted to cortisol by 11βHSD1 oxo-reductase activity and cortisol (but not cortisone) binds to and activates the glucocorticoid receptor. Activated glucocorticoid receptor then binds to the GRE and initiates transcription and translation of β-galactosidase. Enzyme activity can then be assayed with high sensitivity by colourimetric assay.
Cells were routinely cultured in DMEM (Invitrogen, Paisley, Renfrewshire, UK) containing 10% foetal calf serum (LabTech), 1% glutamine (Invitrogen), 1% penicillin & streptomycin (Invitrogen), 0.5 mg/ml G418 (Invitrogen) & 0.5 mg/ml hygromycin (Boehringer). Assay media was phenol red free-DMEM containing 1% glutamine, 1% penicillin & streptomycin.
Compounds (1 mM) to be tested were dissolved in dimethyl sulphoxide (DMSO) and serially diluted into assay media containing […]. […]
A cocktail (25 μl) consisting of 10× Z-buffer (600 mM Na2HPO4, 400 mM NaH2PO4.2H2O, 100 mM KCl, 10 mM MgSO4.7H2O, 500 mM β-mercaptoethanol, pH 7.0), SDS (0.2%), chlorophenol red-β-D-galactopyranoside (5 mM, Roche Diagnostics) was added per well and plates incubated at 37° C. for 3-4 hours. β-Galactosidase activity was indicated by a yellow to red colour change (absorbance at 570 nm) measured using a Tecan Spectrafluor Ultra.
The calculation of median inhibitory concentration (IC50) values for the inhibitors was performed using Origin 6.0 (Microcal Software, Northampton Mass. USA). Dose response curves for each inhibitor were plotted as OD units at each inhibitor concentration with relation to a maximum signal (cortisone, no compound) and IC50 values calculated. […]

**Q.** Which IC50 does the source give for O=C(c1ccc(F)cc1)C1CCN(C(=O)c2ccc(Cl)cc2)C1 (stereo not drawn) [Example 5] here?
**A.** The IC50 was 75 nM.

**Q.** With O=C(c1ccc(F)cc1)C1CCN(C(=O)c2ccccc2Cl)C1 (stereo not drawn) [Example 7] as the compound, how does the IC50 read?
**A.** Its IC50 is 70 nM.

**Q.** How did the IC50 turn out when O=C(c1ccc(F)cc1)C1CCN(S(=O)(=O)c2ccc(F)cc2)C1 (stereo not drawn) [Example 18] was run?
**A.** The IC50 was 447 nM.
